# Patent US20060223792A1, “Phenyl and pyridyl LTA4H modulators” (priority 2005, published 2006)
# Structures can show the parent of a compound that is named as a salt.
# Target: T1, recombinant human LTA4 hydrolase (rhLTA4H) (Homo sapiens, UniProt P09960)
# T1 construct: made in house; host or cells: Spodoptera frugiperda (Sf-9) cells, baculovirus (pFastBac1)
# T1 sequence (P09960 1-611): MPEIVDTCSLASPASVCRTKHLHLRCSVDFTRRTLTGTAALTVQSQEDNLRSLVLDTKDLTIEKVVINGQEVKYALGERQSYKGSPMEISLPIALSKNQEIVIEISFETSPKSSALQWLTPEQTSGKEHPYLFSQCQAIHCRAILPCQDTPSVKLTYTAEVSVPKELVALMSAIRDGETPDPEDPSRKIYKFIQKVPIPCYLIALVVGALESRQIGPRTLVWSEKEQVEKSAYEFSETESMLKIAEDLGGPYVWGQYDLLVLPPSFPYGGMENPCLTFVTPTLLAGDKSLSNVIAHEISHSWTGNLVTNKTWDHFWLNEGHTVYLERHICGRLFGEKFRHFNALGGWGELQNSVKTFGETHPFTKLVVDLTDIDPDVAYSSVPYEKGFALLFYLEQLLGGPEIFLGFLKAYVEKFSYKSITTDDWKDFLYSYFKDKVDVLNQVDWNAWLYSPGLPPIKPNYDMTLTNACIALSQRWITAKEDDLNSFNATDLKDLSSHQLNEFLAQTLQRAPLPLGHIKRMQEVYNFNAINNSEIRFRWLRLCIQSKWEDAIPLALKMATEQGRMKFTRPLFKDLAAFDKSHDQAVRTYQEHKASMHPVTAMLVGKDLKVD
# Assay: Recombinant human LTA4 hydrolase assay for LTA4 hydrolase inhibitor activity
# Type: biochemical
# Settings: not given
# Method: Recombinant Human LTA4 Hydrolase Assay for LTA4 Hydrolase Inhibitor Activity
# Compounds of the present invention were tested for LTA4 hydrolase inhibitor activity against recombinant human LTA4 hydrolase (rhLTA4H). Vectors were prepared and used to express rhLTA4H essentially as follows: LTA4 hydrolase encoding DNA was amplified by polymerase chain reaction (PCR) using a human placental cDNA library as a template. Oligonucleotide primers for the PCR reaction were based on the 5′-end, and the complement of the 3′-end, of the published nucleotide sequence for the coding region of the human LTA4 hydrolase gene (C. D. Funk et al., Proc. Natl. Acad. Sci. USA 1987, 84:6677-6681). The amplified […] DNA fragment encoding LTA4 hydrolase was isolated and cloned into the pFastBac1 vector (Invitrogen). Recombinant baculovirus was generated as described by the manufacturer, and used to infect Spodoptera frugiperda (Sf-9) cells. Recombinant LTA4 hydrolase enzyme was purified from the infected Sf-9 cells essentially as described by J. K. Gierse et al. (Protein Expr. Purif. 1993, 4(5):358-366). The purified enzyme solution was adjusted to contain 0.29 mg/mL LTA4 hydrolase, 50 mM Tris (pH 8.0),150 mM NaCl, 5 mM dithiothreitol, 50% glycerol, and EDTA-free Complete protease inhibitor cocktail (Roche). The specific activity of the enzyme was about 3.8 μmol/min/mg.
# LTA4 substrate was prepared from the methyl ester of LTA4 (Cayman Chemical) by treatment with 67 equiv. of NaOH under nitrogen at rt for 40 min. The LTA4 substrate in its free acid form was kept frozen at −80° C. until needed. Each compound was diluted to different concentrations in assay buffer (0.1 M potassium phosphate (pH 7.4), 5 mg/mL fatty acid free BSA) containing 10% DMSO. A 25-μL aliquot of each compound dilution was incubated for 10 min at rt with an equal volume of assay buffer containing 36 ng of recombinant human LTA4H. The solution was then adjusted to 200 μL with assay buffer. LTA4 (free acid) was thawed and diluted in assay buffer to a concentration of 357 ng/mL, and 25 μL (9 ng) of LTA4 substrate was added to the reaction mixture (total volume=225 μL) at time zero. Each reaction was carried out at rt for 10 min. The reaction was stopped by diluting 10 μL of the reaction mixture with 200 μL of assay buffer. LTB4 was quantifiedin the diluted sample by a commercially available enzyme-linked immunoassay (Cayman Chemical Co.), as recommended by the manufacturer. Positive controls, under essentially identical conditions but without addition of an inhibitor compound, and negative controls, containing all assay components except enzyme, were routinely run in each experiment. IC50 values were determined by fitting the activity data at different compound concentrations to a 4-parameter equation using the Grafit program (Erithacus software).
# The IC50 values presented in the table below should be expected to fall within the typical three-fold variability of assays of this type. The values presented here are, in general, an average of one to three determinations.
row,Structure (SMILES),IC50 [nM]
1,"O=C(Nc1ccc(OCCN2CCCCC2)cc1)Oc1ccccc1 [Example 14, [4-(2-Piperidin-1-yl-ethoxy)-phenyl]-carbamic acid phenyl ester hydrochloride]",1790

# Same assay, conditions: recombinant human LTA4H, LTB4 quantified by enzyme-linked immunoassay; average of one to three determinations; read-out: IC50
row,IC50 [nM],Structure (SMILES)
1,25,"NC1CCN(Cc2ccc(OCCc3ccccc3)cc2)CC1 [Example 105, 1-(4-Phenethyloxy-benzyl)-piperidin-4-ylamine]"
2,86,"O=C(Oc1ccc(OCCN2CCCCC2)cc1)c1c[nH]c2ccccc12 [Example 68, 1H-Indole-3-carboxylic acid 4-(2-piperidin-1-yl-ethoxy)-phenyl ester]"
3,11,"O=C1CCCCN1C1CCN(CCc2ccc(OCCc3ccccc3)cc2)CC1 [Example 80, 1′-[2-(4-Phenethyloxy-phenyl)-ethyl]-[1,4′]bipiperidinyl-2-one]"
4,81,O=C(O)C1CCN(CCc2ccc(OCC(O)c3ccccc3)cc2)CC1 (stereo not shown) [Example 92]
5,22,"Oc1cccc(CCOc2ccc(OCCN3CCCCC3)cc2)c1 [Example 28, 3-{2-[4-(2-Piperidin-1-yl-ethoxy)-phenoxy]-ethyl}-phenol]"
6,3,"COC(=O)C1CCN(CCc2ccc(OCC(O)c3ccccc3)cc2)CC1 (stereo not shown) [Example 76, 1-{2-[4-(2—hydroxy-2-phenyl-ethoxy)-phenyl]-ethyl}-piperidine-4-carboxylic acid methyl ester]"
7,64,"O=C(Cc1ccc(OCCN2CCCCC2)cc1)Nc1ccccc1O [Example 44, N-(2—hydroxy-phenyl)-2-[4-(2-piperidin-1-yl-ethoxy)-phenyl]-acetamide]"
8,49,"N#CCCCN(CCc1ccc(OCCc2ccccc2)cc1)C1CC1 [Example 33, 4-{Cyclopropyl-[2-(4-phenethyloxy-phenyl)-ethyl]-amino}-butyronitrile]"
9,100,"O=C1CN(CCc2ccc(OCCc3ccccc3)cc2)CCN1 [Example 83, 4-[2-(4-Phenethyloxy-phenyl)-ethyl]-piperazin-2-one]"
10,31,"c1ccc(CCCOc2ccc(CN3CCCCC3)cc2)cc1 [Example 97, 1-[4-(3-Phenyl-propoxy)-benzyl]-piperidine]"
11,900,"Fc1cccc(CCOc2ccc(OCCN3CCCCC3)cc2)c1 [Example 165, 1-(2-{4-[2-(3-Fluoro-phenyl)-ethoxy]-phenoxy}-ethyl)-piperidine]"
12,9,"NC(=O)C1CCN(Cc2ccc(OCCCc3ccccc3)cc2)CC1 [Example 110, 1-[4-(3-Phenyl-propoxy)-benzyl]-piperidine-4-carboxylic acid amide]"
13,70,"OC1CCN(Cc2ccc(OCCc3ccccc3)cc2)CC1 [Example 103, 1-(4-Phenethyloxy-benzyl)-piperidin-4-ol]"
14,5,"OC(COc1ccc(OCCN2CCCCC2)cc1)c1ccccc1 (stereo not shown) [Example 71, 1-Phenyl-2-[4-(2-piperidin-1-yl-ethoxy)-phenoxy]-ethanol]"
15,8,"COC(=O)NC1CCN(Cc2ccc(OCCCc3ccccc3)cc2)CC1 [Example 121, {1-[4-(3-Phenyl-propoxy)-benzyl]-piperidin-4-yl}-carbamic acid methyl ester]"
16,1,"O=C(Oc1ccccc1)Oc1ccc(OCCN2CCCCC2)cc1 [Example 20, Carbonic acid phenyl ester 4-(2-piperidin-1-yl-ethoxy)-phenyl ester]"
17,4,"CN(CCC(=O)O)CCc1ccc(OCCc2ccccc2)cc1 [Example 88, 3-{Methyl-[2-(4-phenethyloxy-phenyl)-ethyl]-amino}-propionic acid]"
18,21,"CCOC(=O)CCN(CCc1ccc(OCCc2ccccc2)cc1)C1CCN(C(C)=O)CC1 [Example 90, 3-{(1-Acetyl-piperidin-4-yl)-[2-(4-phenethyloxy-phenyl)-ethyl]-amino}-propionic acid ethyl ester]"
19,100,"CCOC(=O)C1CCCN(C2CCN(CCc3ccc(OCCc4ccccc4)cc3)CC2)C1 (stereo not shown) [Example 18, 1′-[2-(4-Phenethyloxy-phenyl)-ethyl]-[1,4]′bipiperidinyl-3-carboxylic acid ethyl ester]"
20,43,"CCOC(=O)CCN(C)CCc1ccc(OCCc2ccccc2)cc1 [Example 85, 3-{Methyl-[2-(4-phenethyloxy-phenyl)-ethyl]-amino}-propionic acid ethyl ester]"
21,223,"O=C(O)C1CCCN(C2CCN(CCc3ccc(OCCc4ccccc4)cc3)CC2)C1 (stereo not shown) [Example 19, 1′-[2-(4-Phenethyloxy-phenyl)-ethyl]-[1,4′]bipiperidinyl-3-carboxylic acid]"
22,352,"O=C(Nc1ccccc1)OCc1ccc(OCCN2CCCCC2)cc1 [Example 16, Phenyl-carbamic acid 4-(2-piperidin-1-yl-ethoxy)-benzyl ester]"

row,Structure (SMILES),IC50 [nM]
1,"CCOC(=O)C1CCN(CCOc2ccc(OC(=O)N(C)c3cccc(O)c3)cc2)CC1 [Example 8, 1-(2-{4-[(3-Hydroxy-phenyl)-methyl-carbamoyloxy]-phenoxy}-ethyl)-piperidine-4-carboxylic acid ethyl ester]",100
2,"CCCC1CCN(CCOc2ccc(OC(=O)Nc3ccccc3)cc2)CC1 [Example 41, Phenyl-carbamic acid 4-[2-(4-propyl-piperidin-1-yl)-ethoxy]-phenyl ester]",1
3,"CCCN(CCc1ccc(OC(=O)Nc2ccccc2)cc1)CC1CC1 [Example 62, Phenyl-carbamic acid 4-[2-(cyclopropylmethyl-propyl-amino)-ethyl]-phenyl ester]",4
4,"c1ccc(CCOc2ccc(CCNC3CC3)cc2)cc1 [Example 32, Cyclopropyl-[2-(4-phenethyloxy-phenyl)-ethyl]-amine]",177
5,"O=C(Nc1ccccc1)Oc1ccc(CCCN2CCC(O)(c3ccccc3)CC2)cc1 [Example 36, Phenyl-carbamic acid 4-[3-(4-hydroxy-4-phenyl-piperidin-1-yl)-propyl]-phenyl ester]",5
6,"CCN(CCc1ccc(OCC(=O)c2ccccc2)cc1)C1CCCCC1 [Example 72, 2-{4-[2-(Cyclohexyl-ethyl-amino)-ethyl]-phenoxy}-1-phenyl-ethanone]",10
7,"CCN(CC)CCOc1ccc(OC(=O)Nc2ccccc2)cc1 [Example 46, Phenyl-carbamic acid 4-(2-diethylamino-ethoxy)-phenyl ester]",7
8,"O=C(Nc1ccccc1)Oc1ccc(OCCN2CCC(O)(c3ccc(Br)cc3)CC2)cc1 [Example 56, Phenyl-carbamic acid 4-{2-[4-(4-bromo-phenyl)-4-hydroxy-piperidin-1-yl]-ethoxy}-phenyl ester]",3
9,"CCCN(CCOc1ccc(OC(=O)Nc2ccccc2)cc1)CC1CC1 [Example 49, Phenyl-carbamic acid 4-[2-(cyclopropylmethyl-propyl-amino)-ethoxy]-phenyl ester]",4
10,"CN(C(=O)Oc1ccc(OCCN2CCC(C(=O)O)CC2)cc1)c1cccc(O)c1 [Example 9, 1-(2-{4-[(3—hydroxy-phenyl)-methyl-carbamoyloxy]-phenoxy}-ethyl)-piperidine-4-carboxylic acid]",389
11,"O=C(Nc1ccccc1)Oc1ccc(CCN2CCC(O)(c3ccccc3)CC2)cc1 [Example 17, Phenyl-carbamic acid 4-[2-(4-hydroxy-4-phenyl-piperidin-1-yl)-ethyl]-phenyl ester]",33
